# How the values were obtained:
# [1] = test system: human promyelocytic leukemia cell HL-60; details: HL-60, MTT, 48 h
# Experimental: (§1) The purpose of the assay is to evaluate the in vitro cell proliferation inhibition or cytotoxic activity of a tested sample.
# (§2) U937 and HL-60 were suspension cells, and cells in a logarithmic growth phase were selected and prepared into a 2×10^5/ml cell suspension by a RPMI 1640 culture medium containing 10% fetal bovine serum. And the cell suspension was inoculated in a 96-well culture plate, and each well was 50 μL and the 96-well culture plate was cultured at 37° C. and 5% CO2 for 24 hours. 50 μL of a culture medium containing different concentrations of the tested sample isovaleryl spiramycin I, isovaleryl spiramycin II, or isovaleryl spiramycin III was added in the experimental group, while a culture medium containing the same volume of solvent was added into the control group. Each group was set up with 3 parallel wells that were cultured at 37° C. and 5% CO2 for 48 h. And 10 μL of freshly prepared medium containing 5 mg/ml MTT was added into each well for continuous incubation for 4 hours at 37° C. The crystals were dissolved in 100 μL of a triple solution (SDS 10 g, 10 M HCl 0.1 mL, isobutanol 5 mL, diluted with distilled water to 100 mL), and incubated at 37° C. for 12 hours. The optical density value was measured at 492 nm with a microplate reader.
# (§3) The inhibition rate of the medicament on tumor cell growth is calculated according to the following formula:
# (§4) Tumor cell growth inhibition rate (%)=[A492 (negative control)−A492 (dosing group)]/A492 (negative control)×100%
# (§5) And the half-inhibitory concentration (IC50) of the sample is determined therefrom.
# [2] = test system: human tissue lymphoma cell U937; details: U937, MTT, 48 h
# Experimental: as §1, §2, §3, §4, §5
# [3] = test system: human bladder cancer cell T-24; details: T-24, MTT
# Source text: as §1
# (§6) Human breast cancer cells MCF-7 and MDA-MB-231, human hepatoma cells HepG2, human non-small cell lung cancer cells A549, human large cell lung cancer cells H460 and H1299, human renal clear cell adenocarcinoma cell 786-0, human renal cell adenocarcinoma cell 769-P, human glioma cell U251, human glioblastoma cell A172, human tissue lymphoma cell U937, human cervical cancer cell HeLa, human prostate cancer cell PC3, human pancreatic cancer cell PANC-1, human esophageal cancer cell TE-1, human gastric adenocarcinoma cell SGC7901, human colon cancer cell HT-29, human promyelocytic leukemia cell HL-60, human thyroid cancer cell TPC-1, and human bladder cancer cell T-24.
# as §3, §4, §5
# [4] = test system: human thyroid cancer cell TPC-1; details: TPC-1, MTT
# Source text: as §1, §6, §3, §4, §5
# [5] = test system: transplanted tumor of human glioma cell U251; test: U251 transplanted tumor in nude mice; details: for Tumor Volume (mm3) (d 1): d1
# Experimental: (§7) U251 cells in a logarithmic growth phase were taken and subjected to a trypan blue exclusion experiment showing that the cell viability was more than 95%, then the cells were subjected to trypsinization, centrifugation, and supernatant removal. Then cell concentration was adjusted to 1×10^7/ml with matrigel, then each nude mouse was inoculated subcutaneously with 0.2 ml of cells at its right armpit and recorded as the first day of inoculation. When the tumor grows to be greater than or equal to 100 mm^3, the mice were randomly divided into 11 groups with 6 mice in each group: a model group, a cyclophosphamide group, isovaleryl spiramycin I groups with doses of 25, 50 and 100 mg/kg, isovaleryl spiramycin II groups with doses of 25, 50 and 100 mg/kg, and isovaleryl spiramycin III groups with doses of 25, 50 and 100 mg/kg. Each group was continuously administered intragastrically for 30 days with a dose of 20 ml/kg. The mice were sacrificed the next day after drug withdrawal and the indicators were tested. The long diameter and short diameter of the tumor, and the body weight of each mouse were recorded every 3 days from drug administration to nude mouse sacrifice.
# (§8) The body weight of the nude mice and the long diameter (a) and short diameter (b) of the transplanted tumor were measured every 3 days, and the tumor volume (v), relative tumor volume (RTV) and relative tumor proliferation rate (T/C) are calculated respectively according to the following formulas, wherein V=a×b^2/2; RTV=V/V0 (V0 is the tumor volume before administration, V is the tumor volume before sacrifice), and T/C (%)=treatment group RTV/model control group RTV×100%.
# (§9) Each mouse was weighed and sacrificed. After the tumor was completely stripped off from the body of the mouse, the non-tumor tissues such as blood stains and fat were removed to weigh the tumor and calculate the tumor growth inhibition rate. The average tumor weight of each group of mice is used as an indicator of efficacy. Tumor growth inhibition rate (%)=(1−the average tumor weight of the treatment group/the average tumor weight of the model group)×100%.
# [6] = test system: transplanted tumor of human gastric adenocarcinoma cell SGC7901; test: SGC7901 transplanted tumor in nude mice
# Experimental: as §7, with “Then” for “U251 cells in a logarithmic growth phase were taken and subjected to a trypan blue exclusion experiment showing that the cell viability was more than 95%, then the cells were subjected to trypsinization, centrifugation, and supernatant removal. Then”
# as §8, §9
# [7] = U251, high dose (100 mg/kg in method) i.g. 30 days
# [8] = U251, low dose (25 mg/kg in method) i.g. 30 days
# [9] = U251, medium dose (50 mg/kg in method) i.g. 30 days
# [10] = SGC7901, 12.5 mg/kg (low dose) i.g. 30 days
# [11] = SGC7901, 25 mg/kg (medium dose) i.g. 30 days
# [12] = SGC7901, 50 mg/kg (high dose) i.g. 30 days
compound,measurement,setting,value
"COC1C(OC(C)=O)CC(=O)OC(C)CC=CC=CC(OC2CCC(N(C)C)C(C)O2)C(C)CC(CC=O)C1OC1OC(C)C(OC2CC(C)(O)C(OC(=O)CC(C)C)C(C)O2)C(N(C)C)C1O (centres unmarked) [Isovaleryl spiramycin II, isovaleryl spiramycin II]",IC50,[1],29.39 ± 1.82 µg/mL
same,IC50,[2],34.92 ± 0.81 µg/mL
same,IC50,[3],39.85 ± 3.26 µg/mL
same,IC50,[4],45.37 ± 2.90 µg/mL
same,Relative Tumor Proliferation Rate (T/C),[5]; [7],43.26%
same,tumor growth inhibition rate,[5]; [7],40.26%
same,Relative Tumor Proliferation Rate (T/C),[5]; [8],76.14%
same,tumor growth inhibition rate,[5]; [8],10.91%
same,tumor volume and relative tumor volume compared with the model group,"[5]; U251, low, medium and high doses, P<0.05",significantly lower
same,Relative Tumor Proliferation Rate (T/C),[5]; [9],51.88%
same,tumor growth inhibition rate,[5]; [9],15.81%
same,Inhibition Rate (%),"[5]; U251 nude mice, 25 mg/kg",10.91%
same,Relative Tumor Proliferation Rate (T/C),"[5]; U251 nude mice, 25 mg/kg",76.14%
same,Relative Tumor Volume (RTV),"[5]; U251 nude mice, 25 mg/kg",14.73 ± 1.33
same,Tumor Weight,"[5]; U251 nude mice, 25 mg/kg",1.23 ± 0.12 g
same,Tumor Volume (mm3) (d 1),"[5]; U251 nude mice, 25 mg/kg",125.90 ± 11.45 mm3
same,Tumor Volume (mm3) (d30),"[5]; U251 nude mice, 25 mg/kg",1596.45 ± 267.65 mm3
same,Inhibition Rate (%),"[5]; U251 nude mice, 50 mg/kg",15.81%
same,Relative Tumor Proliferation Rate (T/C),"[5]; U251 nude mice, 50 mg/kg",51.88%
same,Relative Tumor Volume (RTV),"[5]; U251 nude mice, 50 mg/kg",14.31 ± 0.98
same,Tumor Weight,"[5]; U251 nude mice, 50 mg/kg",1.16 ± 0.10 g
same,Tumor Volume (mm3) (d 1),"[5]; U251 nude mice, 50 mg/kg",118.33 ± 11.65 mm3
same,Tumor Volume (mm3) (d30),"[5]; U251 nude mice, 50 mg/kg",1030.10 ± 207.19 mm3
same,Inhibition Rate (%),"[5]; U251 nude mice, 100 mg/kg",40.26%
same,Relative Tumor Proliferation Rate (T/C),"[5]; U251 nude mice, 100 mg/kg",43.26%
same,Relative Tumor Volume (RTV),"[5]; U251 nude mice, 100 mg/kg",12.88 ± 1.54
same,Tumor Weight,"[5]; U251 nude mice, 100 mg/kg",0.83 ± 0.12 g
same,Tumor Volume (mm3) (d 1),"[5]; U251 nude mice, 100 mg/kg",122.74 ± 10.75 mm3
same,Tumor Volume (mm3) (d30),"[5]; U251 nude mice, 100 mg/kg",890.78 ± 225.34 mm3
same,mouse weight compared with the model group,"[5]; mouse, in vivo",no significant changes
same,Body Weight (g) (d1),"[5]; mouse, in vivo, 25 mg/kg",20.77 ± 0.65 g
same,Body Weight (g) (d30),"[5]; mouse, in vivo, 25 mg/kg",20.85 ± 0.79 g
same,Body Weight (g) (d1),"[5]; mouse, in vivo, 50 mg/kg",21.25 ± 0.46 g
same,Body Weight (g) (d30),"[5]; mouse, in vivo, 50 mg/kg",20.86 ± 0.43 g
same,Body Weight (g) (d1),"[5]; mouse, in vivo, 100 mg/kg",20.92 ± 0.82 g
same,Body Weight (g) (d30),"[5]; mouse, in vivo, 100 mg/kg",21.47 ± 0.70 g
same,Inhibition Rate (tumor growth inhibition rate),[6]; [10],24.44%
same,Relative Tumor Proliferation Rate (T/C),[6]; [10],70.48%
same,Relative Tumor Volume (RTV),[6]; [10],7.90 ± 6.97
same,Tumor Volume (d 1),[6]; [10],134.33 ± 57.77 mm3
same,Tumor Volume (d 30),[6]; [10],1029.72 ± 818.01 mm3
same,Tumor Weight,[6]; [10],1.19 ± 0.62 g
same,Inhibition Rate (tumor growth inhibition rate),[6]; [11],41.76%
same,Relative Tumor Proliferation Rate (T/C),[6]; [11],51.42%
same,Relative Tumor Volume (RTV),[6]; [11],6.88 ± 5.66
same,Tumor Volume (d 1),[6]; [11],195.76 ± 76.95 mm3
same,Tumor Volume (d 30),[6]; [11],1094.82 ± 687.01 mm3
same,Tumor Weight,[6]; [11],0.91 ± 0.53 g
same,Inhibition Rate (tumor growth inhibition rate),[6]; [12],70.24%
same,Relative Tumor Proliferation Rate (T/C),[6]; [12],36.95%
same,Relative Tumor Volume (RTV),[6]; [12],6.90 ± 7.37
same,Tumor Volume (d 1),[6]; [12],143.85 ± 16.25 mm3
same,Tumor Volume (d 30),[6]; [12],577.98 ± 411.47 mm3
same,Tumor Weight,[6]; [12],0.47 ± 0.42 g
same,tumor volume and relative tumor volume compared with the model group,"[6]; SGC7901, low, medium and high doses, P<0.05",significantly lower
same,mouse weight compared with the model group,"[6]; mouse, in vivo",no significant changes

# From patent publication US20200163984A1, “USE OF ISOVALERYL SPIRAMYCIN I, II AND/OR III IN MANUFACTURING MEDICAMENT FOR TREATING AND/OR PREVENTING TUMOR, AND MEDICAMENT” (SHENYANG FUYANG PHARMACEUTICAL TECHNOLOGY CO., LTD., priority 2017, published 2020)
